IC50 data for 13 compounds are collected here from US20130131018A1, “SUBSTITUTED ISOQUINOLINES AND THEIR USE AS TUBULIN POLYMERIZATION INHIBITORS” (Exonhit S.A., priority 2010, published 2013).

Where a name gives a salt, the structure may show the parent alone. Read-outs that look alike come from different tables or passages of the source.

For orientation: IC50 means the point on the concentration scale where inhibition reaches its midpoint.

Holding throughout (assay type): cell-based
The subject of test [1] is K562 cell line. As to the kind of experiment: MTT assay: cytotoxicity against the K562 cell line. The conditions noted are these: Homo sapiens, K562 cells, 72 h, growth inhibition. The method, then: Assessment of Cell Viability via MTT Assay: Cytotoxicity of compounds against the K562 cell line was assessed using the [3-(4,5-dimethylthiazol-2-yl)-2,5-diphenyl tetrazolium bromide] (MTT) assay. Fifteen thousand tumor cells were seeded into wells of flat-bottomed 96-well plates. An amount of 2 μL of a dilution series of each compound dissolved in DMSO was added to 198 μL of appropriate growth medium at three replicates per concentration and the plates were incubated in a 5% CO2 incubator at 37° C. After 72 h, the number of metabolically active cells was determined by MTT assay. Absorbance of each well was measured at 550 nm on a Tecan Sunrise reader. Dose-response curves for growth inhibition were generated as a percentage of untreated control. IC50 was determined by nonlinear regression (Prism, Graph Pad Software, Inc.).
On the technique in general: Formazan colour is commonly taken as a measure of viable cells.

In test [2] the test system is Endothelial cells (HUVEC). Kind of test: Neovessels formation inhibition (capillary tube formation on Matrigel). Particulars: Homo sapiens. The method, then: The capability of compounds to inhibit the formation of capillaries was evaluated in vitro. Twenty thousand Endothelial cells (HUVEC) were placed on a Matrigel matrix and allowed to form capillary tubes in the presence or absence of the compounds overnight. The cells were stained with calcein AM, and the effect of the compounds on capillary tube formation was assessed using an inverted fluorescent microscope (Nikon). The reference compound used in this assay AVE-8063 is 3-amino-deoxycombretastatin A-4.

Test [3] relates to HUVEC. As to the kind of experiment: Pre-established vessels disruption (capillary tubes on Matrigel). Particulars: Homo sapiens, HUVEC tubes formed 5 hours, then compounds overnight. The method, then:
To explore the effect of the compounds on pre-established vasculature, twenty thousand cells (HUVEC) were seeded and incubated over Matrigel for 5 hours to allow the capillary tubes to form. Then, compounds were added and incubated overnight. The disappearance of existing vasculature was monitored with fluorescent microscopy.

Where [4] appears, read: HUVEC on Matrigel, compounds overnight, read-out: Neovessels Formation Inhibition Number of Branch Junctions IC50.
Setting [5] is: HUVEC on Matrigel, compounds overnight, read-out: Neovessels Formation Inhibition Total Tubule Length IC50.
Where [6] appears, read: read-out: Pre-established Vessels Disruption Number of Branch Junctions IC50.
The mark [7] stands for this setting: read-out: Pre-established Vessels Disruption Total Tubule Length IC50.

Regarding `CCOc1ccc2c(Cc3cc(OC)c(OC)c(OC)c3)cncc2c1NS(N)(=O)=O` [Compound 8, 7-Ethoxy-4-(3,4,5-trimethoxy-benzyl)isoquinolin-8-yl]-sulfamide hydrochloride], the IC50 in test [1] came out at 53.4 nM; in test [2] (setting [4]), 100 nM; in test [2] (setting [5]), 138 nM.

In the case of `COc1ccc(N(C)c2nc(C)nc3ccccc23)cc1` [Azixa, reference compound], the IC50 stood at 3.75 nM in test [3] (setting [6]); 6.01 nM in test [3] (setting [7]); 2.15 nM in test [1]; 1.38 nM in test [2] (HUVEC, read-out: Neovessels Formation Inhibition Number of Branch Junctions IC50 (nM)); 2.16 nM in test [2] (HUVEC, read-out: Neovessels Formation Inhibition Total Tubule Length IC50 (nM)).

Take `CC(=O)O[C@H]1C(=O)[C@@]2(C)[C@H]([C@H](OC(=O)c3ccccc3)[C@]3(O)C[C@H](OC(=O)[C@H](O)[C@@H](NC(=O)c4ccccc4)c4ccccc4)C(C)=C1C3(C)C)[C@]1(OC(C)=O)CO[C@@H]1C[C@@H]2O` [Taxol, reference compound]: the values for the IC50 in test [1], in test [2] (setting [4]) and in test [2] (setting [5]) were 6.9 nM, 0.79 nM and 7.16 nM, respectively.

Take `CCOc1ccc2c(C(=O)c3cc(OC)c(OC)c(OC)c3)cncc2c1NC(=O)CN` [Compound 112, 2-Amino-N-(7-ethoxy-4-(3,4,5-trimethoxybenzoyl)isoquinolin-8-yl)acetamide]: the IC50 worked out at 68.5 nM in test [3] (setting [6]); 62.8 nM in test [3] (setting [7]); 7.9 nM in test [1]; 16.4 nM in test [2] (setting [4]); 31.3 nM in test [2] (setting [5]).

`CCOc1ccc2c(C(=O)c3cc(OC)c(OCC(C)C)c(OC)c3)cncc2c1OC(C)=O` [Compound 78, 7-Ethoxy-4-(4-isobutoxy-3,5-dimethoxybenzoyl)isoquinolin-8-yl acetate]: the 50% inhibitory concentration (IC50) in test [3] (setting [6]) was found to be 11.1 nM; in test [3] (setting [7]) it was 19.4 nM; in test [1] it was 7.02 nM; in test [2] (setting [5]), 8.07 nM.

As for `CCOc1ccc2c(C(=O)c3cc(OC)c(OCC)c(OC)c3)cncc2c1OC` [Compound 47, (4-Ethoxy-3,5-dimethoxyphenyl)-(7-ethoxy-8-methoxyisoquinolin-4-yl)-methanone hydrochloride], it took 129 nM to reach half-maximal inhibition in test [1] (IC50).

Consider `CCOc1ccc2c(Cc3cc(I)c(OC)c(I)c3)cncc2c1O` [Compound 70, 4-(3,5-Diiodo-4-methoxybenzyl)-7-ethoxyisoquinolin-8-ol hydrochloride], for which the IC50 in test [1] came to 92.8 nM.

On to `CCOc1ccc2c(Cc3cc(OC)c(OCC4CCC4)c(OC)c3)cncc2c1O` [Compound 34, 4-(4-(Cyclobutylmethoxy)-3,5-dimethoxybenzyl)-7-ethoxyisoquinolin-8-ol hydrochloride], for which the IC50 in test [1] was found to be 65 nM.

Turning to `CCOc1ccc2c(Cc3cc(OC)c(OC)c(OC)c3)cncc2c1NCC(=O)OC` [Compound 93, Methyl 2-(7-ethoxy-4-(3,4,5-trimethoxybenzyl)isoquinolin-8-ylamino)acetate dihydrochloride], inhibition in test [1] was half-maximal at 334 nM (IC50).

`CCOc1ccc2c(Cc3cc(N)c(OCC)c(OC)c3)cncc2c1O` [Compound 75, 4-(3-Amino-4-ethoxy-5-methoxybenzyl)-7-ethoxyisoquinolin-8-ol hydrochloride]: in test [1], it took 236 nM to reach half-maximal inhibition (IC50).

In turn, `CCOc1ccc2c(Cc3cc(OC)c(OC)c([N+](=O)[O-])c3)cncc2c1O` [Compound 103, 4-(3,4-Dimethoxy-5-nitrobenzyl)-7-ethoxyisoquinolin-8-ol hydrochloride] came in with an IC50 in test [1] of 138 nM.

Take `CCOc1ccc2c(Cc3cc(OC)c(OC)c(OC)c3)cncc2c1NS(=O)(=O)NC(=O)OC(C)(C)C` [Compound 7, tert-butyl N-(7-ethoxy-4-(3,4,5-trimethoxybenzyl)isoquinolin-8-yl)sulfamoylcarbamate]: the half-inhibitory concentration (IC50) in test [1] is 147 nM.

In the case of `CCOc1ccc2c(C(=O)c3cc(OC)c(OC)c(OC)c3)cncc2c1OC(=O)C(C)(C)C` [Compound 109, 7-Ethoxy-4-(3,4,5-trimethoxybenzoyl)isoquinolin-8-yl pivalate], in test [1], the midpoint of inhibition, the IC50, lay at 67.9 nM.
